According to patent US9113629B2, “4-amino-6-(4-substituted-phenyl)-picolinates and 6-amino-2-(4-substituted-phenyl)-pyrimidine-4-carboxylates and their use as herbicides” (DOW AGROSCIENCES LLC, priority 2013, dated 2015):
Where two headings read alike, the source gives them in different places. One block for each molecule: values may come before it.

What was measured:
[1] = system: Key Broadleaf Weed and Crop Species; assay: Post-emergent Test II herbicidal activity (Table 5); type: in vivo; details: post-emergence, 336 h, 14 days after application; for pest or weed control at 70 g/ha: application rate 70 g ai/ha
Protocol: (§1) Post-emergent Test II: Seeds or nutlets of the desired test plant species were planted in Sun Gro Metro-Mix® 360 planting mixture, which typically has a pH of 6.0 to 6.8 and an organic matter content of about 30 percent, in plastic pots with a surface area of 64 square centimeters. When required to ensure good germination and healthy plants, a fungicide treatment and/or other chemical or physical treatment was applied. The plants were grown for 7-21 d in a greenhouse with an approximate 15 h photoperiod which was maintained at about 23-29° C. during the day and 22-28° C. during the night. Nutrients and water were added on a regular basis and supplemental lighting was provided with overhead metal halide 1000-Watt lamps as necessary. The plants were employed for testing when they reached the first or second true leaf stage.
(§2) A weighed amount, determined by the highest rate to be tested, of each test compound was placed in a 25 mL glass vial and was dissolved in 4 mL of a 97:3 v/v mixture of acetone and DMSO to obtain concentrated stock solutions. […] The concentrated stock solutions obtained were diluted with 20 mL of an aqueous mixture containing acetone, water, isopropyl alcohol, DMSO. Atplus 411F crop oil concentrate, and Triton® X-155 surfactant in a 48.5:39:10:1.5:1.0:0.02 v/v ratio to obtain spray solutions containing the highest application rates. Additional application rates were obtained by serial dilution of 12 mL of the high rate solution into a solution containing 2 mL of 97:3 v/v mixture of acetone and DMSO and 10 mL of an aqueous mixture containing acetone, water, isopropyl alcohol, DMSO, Atplus 411F crop oil concentrate, and Triton X-155 surfactant in a 48.5:39:10:1.5:1.0:0.02 v/v ratio to obtain ½×, ¼×, ⅛× and 1/16× rates of the high rate. Compound requirements are based upon a 12 mL application volume at a rate of 187 liters per hectare (L/ha). Formulated compounds were applied to the plant material with an overhead Mandel track sprayer equipped with 8002E nozzles calibrated to deliver 187 L/ha over an application area of 0.503 square meters at a spray height of 18 inches (43 cm) above the average plant canopy height. Control plants were sprayed in the same manner with the solvent blank.
(§3) The treated plants and control plants were placed in a greenhouse as described above and watered by subirrigation to prevent wash-off of the test compounds. After 14 d, the condition of the test plants as compared with that of the untreated plants was determined visually and scored on a scale of 0 to 100 percent where 0 corresponds to no injury and 100 corresponds to complete kill.

[2] = system: Key Grass and Sedge Weeds as well as Grass Crops; assay: Post-emergent Test II herbicidal activity (Table 6); type: in vivo; details: post-emergence, 336 h; for pest or weed control at 70 g/ha: application rate 70 g ai/ha; for pest or weed control at 140 g/ha: application rate 140 g ai/ha
Protocol: as §1, §2, §3

[3] = Triticum aestivum, TRZSS (wheat), read-out: Visual Growth Reduction (%) 14 Days After Application, TRZSS
[4] = CYPES: yellow nutsedge (Cyperus esculentus), read-out: Visual Growth Reduction (%) 14 Days After Application, CYPES
[5] = DIGSA: crabgrass (Digitaria sanguinalis), read-out: Visual Growth Reduction (%) 14 Days After Application, DIGSA
[6] = ORYSA: rice (Oryza sativa), read-out: Visual Growth Reduction (%) 14 Days After Application, ORYSA
[7] = SORVU: grain sorghum (Sorghum vulgare), read-out: Visual Growth Reduction (%) 14 Days After Application, SORVU
[8] = ZEAMX: maize, corn (Zea mays), read-out: Visual Growth Reduction (%) 14 Days After Application, ZEAMX
[9] = ABUTH: velvetleaf (Abutilon theophrasti), 140 g ai/ha, post-emergent, read-out: Visual Growth Reduction (%) 14 Days After Application ABUTH
[10] = AMARE: redroot pigweed (Amaranthus retroflexus), 140 g ai/ha, post-emergent, read-out: Visual Growth Reduction (%) 14 Days After Application AMARE
[11] = BRSNN: oilseed-rape, canola (Brassica napus), 140 g ai/ha, post-emergent, read-out: Visual Growth Reduction (%) 14 Days After Application BRSNN
[12] = CHEAL: lambsquarters (Chenopodium album), 140 g ai/ha, post-emergent, read-out: Visual Growth Reduction (%) 14 Days After Application CHEAL
[13] = EPHHL: wild poinsettia (Euphorbia heterophylla), 140 g ai/ha, post-emergent, read-out: Visual Growth Reduction (%) 14 Days After Application EPHHL
[14] = HELAN: sunflower (Helianthus annuus), 140 g ai/ha, post-emergent, read-out: Visual Growth Reduction (%) 14 Days After Application HELAN
[15] = VIOTR: wild pansy (Viola tricolor), 140 g ai/ha, post-emergent, read-out: Visual Growth Reduction (%) 14 Days After Application VIOTR
[16] = ECHCG: barnyardgrass (Echinochloa crus-galli), read-out: Visual Growth Reduction (%) 14 Days After Application, ECHCG
[17] = SETFA: giant foxtail (Setaria faberi), read-out: Visual Growth Reduction (%) 14 Days After Application, SETFA

- melting point: 147 to 149 °C
SMILES: Nc1c(F)c(-c2ccc(OC(F)F)c(F)c2)nc(C(=O)O)c1Cl [Compound 92, 4-amino-3-chloro-6-(4-(difluoromethoxy)-3-fluorophenyl)-5-fluoropicolinic acid]
- pest or weed control at 70 g/ha ([1]; ABUTH: velvetleaf (Abutilon theophrasti), read-out: Visual Growth Reduction (%) 14 Days After Application, ABUTH): 0 to 29%
- pest or weed control at 140 g/ha ([1]; ABUTH: velvetleaf (Abutilon theophrasti), application rate 140 g ai/ha, read-out: Visual Growth Reduction (%) 14 Days After Application, ABUTH): 0 to 29%
- pest or weed control at 70 g/ha ([1]; AMARE: redroot pigweed (Amaranthus retroflexus), read-out: Visual Growth Reduction (%) 14 Days After Application, AMARE): 45 to 59%
- pest or weed control at 140 g/ha ([1]; AMARE: redroot pigweed (Amaranthus retroflexus), application rate 140 g ai/ha, read-out: Visual Growth Reduction (%) 14 Days After Application, AMARE): 60 to 74%
- pest or weed control at 70 g/ha ([1]; BRSNN: oilseed-rape, canola (Brassica napus), read-out: Visual Growth Reduction (%) 14 Days After Application, BRSNN): 30 to 44%
- pest or weed control at 140 g/ha ([1]; BRSNN: oilseed-rape, canola (Brassica napus), application rate 140 g ai/ha, read-out: Visual Growth Reduction (%) 14 Days After Application, BRSNN): 45 to 59%
- pest or weed control at 70 g/ha ([1]; CHEAL: lambsquarters (Chenopodium album), read-out: Visual Growth Reduction (%) 14 Days After Application, CHEAL): 85 to 94%
- pest or weed control at 140 g/ha ([1]; CHEAL: lambsquarters (Chenopodium album), application rate 140 g ai/ha, read-out: Visual Growth Reduction (%) 14 Days After Application, CHEAL): 85 to 94%
- pest or weed control at 70 g/ha ([1]; EPHHL: wild poinsettia (Euphorbia heterophylla), read-out: Visual Growth Reduction (%) 14 Days After Application, EPHHL): 95 to 100%
- pest or weed control at 140 g/ha ([1]; EPHHL: wild poinsettia (Euphorbia heterophylla), application rate 140 g ai/ha, read-out: Visual Growth Reduction (%) 14 Days After Application, EPHHL): 95 to 100%
- pest or weed control at 70 g/ha ([1]; HELAN: sunflower (Helianthus annuus), read-out: Visual Growth Reduction (%) 14 Days After Application, HELAN): 60 to 74%
- pest or weed control at 140 g/ha ([1]; HELAN: sunflower (Helianthus annuus), application rate 140 g ai/ha, read-out: Visual Growth Reduction (%) 14 Days After Application, HELAN): 75 to 84%
- pest or weed control at 70 g/ha ([1]; VIOTR: wild pansy (Viola tricolor), read-out: Visual Growth Reduction (%) 14 Days After Application, VIOTR): 0 to 29%
- pest or weed control at 140 g/ha ([1]; VIOTR: wild pansy (Viola tricolor), application rate 140 g ai/ha, read-out: Visual Growth Reduction (%) 14 Days After Application, VIOTR): 0 to 29%
- pest or weed control at 70 g/ha [2, 3]: 30 to 44%
- pest or weed control at 140 g/ha [2, 3]: 45 to 59%
- pest or weed control at 70 g/ha [2, 4]: 0 to 29%
- pest or weed control at 140 g/ha [2, 4]: 0 to 29%
- pest or weed control at 70 g/ha [2, 5]: 60 to 74%
- pest or weed control at 140 g/ha [2, 5]: 60 to 74%
- pest or weed control at 70 g/ha [2, 6]: 0 to 29%
- pest or weed control at 140 g/ha [2, 6]: 0 to 29%
- pest or weed control at 70 g/ha [2, 7]: 30 to 44%
- pest or weed control at 140 g/ha [2, 7]: 45 to 59%
- pest or weed control at 70 g/ha [2, 8]: 60 to 74%
- pest or weed control at 140 g/ha [2, 8]: 60 to 74%

- melting point: 204.2 to 205.9 °C
SMILES: C#Cc1ccc(-c2cc(N)c(Cl)c(C(=O)O)n2)cc1 [Compound 48]
- pest or weed control at 140 g/ha [1, 9]: 95 to 100%
- pest or weed control at 140 g/ha [1, 10]: 95 to 100%
- pest or weed control at 140 g/ha [1, 11]: 85 to 94%
- pest or weed control at 140 g/ha [1, 12]: 85 to 94%
- pest or weed control at 140 g/ha [1, 13]: 95 to 100%
- pest or weed control at 140 g/ha [1, 14]: 95 to 100%
- pest or weed control at 140 g/ha [1, 15]: 0 to 29%
- pest or weed control at 140 g/ha [2, 3]: 30 to 44%
- pest or weed control at 140 g/ha [2, 4]: 0 to 29%
- pest or weed control at 140 g/ha [2, 5]: 60 to 74%
- pest or weed control at 140 g/ha [2, 16]: 75 to 84%
- pest or weed control at 140 g/ha [2, 6]: 0 to 29%
- pest or weed control at 140 g/ha [2, 17]: 0 to 29%
- pest or weed control at 140 g/ha [2, 7]: 0 to 29%
- pest or weed control at 140 g/ha [2, 8]: 0 to 29%

- melting point: 178 to 179.7 °C
SMILES: N#Cc1ccc(-c2nc(C(=O)O)c(Cl)c(N)c2Cl)cc1 [Compound 14]
- pest or weed control at 140 g/ha [1, 9]: 0 to 29%
- pest or weed control at 140 g/ha [1, 10]: 0 to 29%
- pest or weed control at 140 g/ha [1, 11]: 0 to 29%
- pest or weed control at 140 g/ha [1, 12]: 95 to 100%
- pest or weed control at 140 g/ha [1, 13]: 0 to 29%
- pest or weed control at 140 g/ha [1, 14]: 95 to 100%
- pest or weed control at 140 g/ha [1, 15]: 0 to 29%
- pest or weed control at 140 g/ha [2, 3]: 0 to 29%
- pest or weed control at 140 g/ha [2, 4]: 0 to 29%
- pest or weed control at 140 g/ha [2, 5]: 0 to 29%
- pest or weed control at 140 g/ha [2, 16]: 0 to 29%
- pest or weed control at 140 g/ha [2, 6]: 0 to 29%
- pest or weed control at 140 g/ha [2, 17]: 0 to 29%
- pest or weed control at 140 g/ha [2, 7]: 0 to 29%
- pest or weed control at 140 g/ha [2, 8]: 0 to 29%

- melting point: 148.2 to 150.9 °C
SMILES: C#Cc1ccc(-c2nc(N)c(OC)c(C(=O)OC)n2)cc1 [Compound 166]
- pest or weed control at 140 g/ha [1, 9]: 0 to 29%
- pest or weed control at 140 g/ha [1, 10]: 95 to 100%
- pest or weed control at 140 g/ha [1, 11]: 0 to 29%
- pest or weed control at 140 g/ha [1, 12]: 60 to 74%
- pest or weed control at 140 g/ha [1, 13]: 95 to 100%
- pest or weed control at 140 g/ha [1, 14]: 85 to 94%
- pest or weed control at 140 g/ha [1, 15]: 0 to 29%
- pest or weed control at 140 g/ha [2, 3]: 0 to 29%
- pest or weed control at 140 g/ha [2, 4]: 45 to 59%
- pest or weed control at 140 g/ha [2, 5]: 0 to 29%
- pest or weed control at 140 g/ha [2, 16]: 0 to 29%
- pest or weed control at 140 g/ha [2, 6]: 0 to 29%
- pest or weed control at 140 g/ha [2, 17]: 0 to 29%
- pest or weed control at 140 g/ha [2, 7]: 0 to 29%
- pest or weed control at 140 g/ha [2, 8]: 45 to 59%
